What was measured:
[1] = tested on: Oryctolagus cuniculus; experiment: Antihypertensive activity in po dosed rabbit assessed as decrease in 30mmhg of systolic blood pressure measured after 4 to 6 hrs; format: functional; details: time 4-6 hrs
[2] = tested on: Mus musculus; experiment: Analgesic activity in mouse at 100 mg/kg, ip measured after 30 mins relative to control; format: functional; details: 0.5 h
[3] = molecular target: Prostaglandin G/H synthase 2 (Homo sapiens) (UniProt P35354); experiment: Inhibition of COXII (unknown origin) relative to control; details: concentration not given here
Sequence of Prostaglandin G/H synthase 2 (Homo sapiens) (P35354 whole entry): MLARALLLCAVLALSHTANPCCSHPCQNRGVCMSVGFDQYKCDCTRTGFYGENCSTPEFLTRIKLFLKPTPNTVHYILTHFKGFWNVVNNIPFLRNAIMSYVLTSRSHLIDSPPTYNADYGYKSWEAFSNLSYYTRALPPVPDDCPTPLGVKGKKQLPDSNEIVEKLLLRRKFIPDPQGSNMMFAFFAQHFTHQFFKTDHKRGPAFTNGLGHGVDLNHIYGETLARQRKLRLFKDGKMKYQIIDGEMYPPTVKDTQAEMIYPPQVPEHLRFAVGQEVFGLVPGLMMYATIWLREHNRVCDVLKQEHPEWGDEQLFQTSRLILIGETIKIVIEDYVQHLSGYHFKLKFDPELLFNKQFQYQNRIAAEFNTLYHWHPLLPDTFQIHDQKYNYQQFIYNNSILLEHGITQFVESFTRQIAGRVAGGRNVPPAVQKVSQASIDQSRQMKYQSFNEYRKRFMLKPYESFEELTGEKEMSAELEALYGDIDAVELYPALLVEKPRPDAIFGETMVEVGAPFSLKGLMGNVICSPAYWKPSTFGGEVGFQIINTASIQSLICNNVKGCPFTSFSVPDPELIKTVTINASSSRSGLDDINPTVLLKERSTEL

[4] = tested on: Mus musculus; experiment: Analgesic activity in […] albino mouse at 20 mg/kg, po measured after 2 hrs by Tail-Flick technique relative to control; format: functional
[5] = tested on: Canis familiaris; experiment: Antiplatelet activity in iv dosed dog assessed as platelet aggregation; format: functional, organism-based; details: Canis lupus familiaris
[6] = species: Mus musculus; experiment: Sedative hypnotic activity in mouse; format: functional; parameters: concentration or dose not given beside the values
[7] = species: Oryctolagus cuniculus; experiment: Antihypertensive activity in rabbit aorta assessed as vasodilation; format: functional
[8] = tested on: Mus musculus; experiment: Anticonvulsant activity in ip dosed mouse assessed as reduction in tonus phase; format: functional
[9] = Antiviral activity against Gomphrena mosaic virus relative to control; format: functional, Gomphrena mosiac virus; parameters: concentration or dose not given beside the values
[10] = molecular target: 5-hydroxytryptamine receptor 2A (Homo sapiens, UniProt P28223); experiment: Inhibition of 5-HT2A (unknown origin) assessed as inhibition constant
Sequence of 5-hydroxytryptamine receptor 2A (P28223 whole entry): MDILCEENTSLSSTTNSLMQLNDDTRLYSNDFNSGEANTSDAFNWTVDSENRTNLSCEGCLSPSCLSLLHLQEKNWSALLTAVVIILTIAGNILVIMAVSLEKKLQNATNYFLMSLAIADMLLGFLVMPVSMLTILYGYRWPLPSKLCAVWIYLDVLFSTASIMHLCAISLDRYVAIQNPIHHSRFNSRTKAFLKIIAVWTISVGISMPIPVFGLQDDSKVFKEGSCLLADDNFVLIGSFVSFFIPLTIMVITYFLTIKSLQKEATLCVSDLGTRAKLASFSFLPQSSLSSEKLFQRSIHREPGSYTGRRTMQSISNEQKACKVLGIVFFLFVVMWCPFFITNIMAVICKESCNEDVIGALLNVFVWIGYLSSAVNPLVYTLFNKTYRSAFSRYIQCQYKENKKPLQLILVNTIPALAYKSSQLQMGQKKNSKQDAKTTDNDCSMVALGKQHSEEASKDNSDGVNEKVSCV

[11] = molecular target: Histamine H2 receptor (Homo sapiens) (UniProt P25021); experiment: Inhibition of histamine h2 (unknown origin)
Sequence of Histamine H2 receptor (Homo sapiens) (P25021 whole entry): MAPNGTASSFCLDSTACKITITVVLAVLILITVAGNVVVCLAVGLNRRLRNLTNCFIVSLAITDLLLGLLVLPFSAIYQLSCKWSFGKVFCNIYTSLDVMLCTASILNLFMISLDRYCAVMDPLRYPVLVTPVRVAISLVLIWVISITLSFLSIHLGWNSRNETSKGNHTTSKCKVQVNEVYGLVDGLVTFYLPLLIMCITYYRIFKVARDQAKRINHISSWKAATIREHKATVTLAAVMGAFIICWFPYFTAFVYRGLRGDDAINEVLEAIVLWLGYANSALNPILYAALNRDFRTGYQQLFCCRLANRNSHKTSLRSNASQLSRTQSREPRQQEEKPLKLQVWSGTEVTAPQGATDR

[12] = tested on: Mus musculus; experiment: Sedative activity in mouse assessed as sleeping time at 300 mg/kg, ip; format: functional
[13] = tested on: A549; experiment: Anticancer activity against human A549 cell assessed as cell growth inhibition measured after 24 hrs by SRB assay; format: functional
[14] = tested on: MOLT-4; experiment: Anticancer activity against human MOLT-4 cell assessed as cell growth inhibition measured after 24 hrs by SRB assay; format: functional
[15] = tested on: K562; experiment: Anticancer activity against human K562 cell assessed as cell growth inhibition measured after 24 hrs by SRB assay; format: functional
[16] = tested on: SR; experiment: Anticancer activity against human SR cell assessed as cell growth inhibition measured after 24 hrs by SRB assay; format: functional
[17] = tested on: RXF 393; experiment: Anticancer activity against human RXF 393 cell assessed as cell growth inhibition measured after 24 hrs by SRB assay; format: functional
[18] = tested on: UO-31; experiment: Anticancer activity against human UO-31 cell assessed as cell growth inhibition measured after 24 hrs by SRB assay; format: functional
[19] = Anticancer activity against human CNS cell assessed as cell growth inhibition measured after 24 hrs by SRB assay; format: functional
[20] = tested on: CCRF-CEM; experiment: Anticancer activity against human CCRF-CEM cell assessed as cell growth inhibition measured after 120 hrs; format: functional, cell-based
[21] = tested on: WIL2; experiment: Anticancer activity against human WIL2 cell assessed as cell growth inhibition measured after 120 hrs; format: functional, cell-based; details: WIL2, 120 h
[22] = tested on: Rattus norvegicus; experiment: Antiinflammatory activity in rat at assessed as reduction in paw edema at 200 mg/kg relative to control; format: functional
[23] = Therapeutic index, ratio of IC50 for antiviral activity against HIV infected in human H9 cells to EC50 for antiviral activity against HIV infected in human H9 cells; format: toxicity, cell-based; details: human immunodeficiency virus, H9 cells infected with HIV; read-out: Ratio IC50/EC50
[24] = tested on: Human immunodeficiency virus; experiment: Antiviral activity against HIV infected in human H9 cells; format: functional, organism-based; details: Human immunodeficiency virus 1, H9
[25] = tested on: MDA-MB-231; experiment: Anticancer activity against human MDA-MB-231 cells assessed as cell growth inhibition incubated for 24 hrs by MTT assay; format: functional, cell-based; details: MDA-MB-231, 24 h
[26] = tested on: HeLa; experiment: Anticancer activity against human HeLa cells assessed as cell growth inhibition incubated for 24 hrs by MTT assay; format: functional, cell-based
[27] = tested on: Human immunodeficiency virus 2; experiment: Antiviral activity against HIV-2 infected in human MT4 cells assessed as protection against virus-induced cytotoxicity relative to control; format: functional; parameters: concentration or dose not given beside the values
[28] = tested on: Human immunodeficiency virus 1; experiment: Antiviral activity against HIV-1 infected in human MT4 cells assessed as protection against virus-induced cytotoxicity relative to control; format: functional; parameters: concentration or dose not given beside the values
[29] = tested on: Mus musculus; experiment: Anticonvulsant activity in ip dosed mouse assessed as reduction in clonus phase; format: functional
[30] = Inhibition of HCV RNA IRES IIa by FRET assay; parameters: species or system Hepacivirus hominis

## Clc1cccc(Cl)c1NC1=NCCN1 [CLONIDINE]
[1]
  ED30: 0.065 mg/kg

## COc1ccccc1C1SCC(=O)N1NCC(=O)Cc1nc2ccccc2c(=O)n1-c1c(C)[nH]c2ccccc12 (stereo unspecified)
[2]
  Activity: 80%
[3]
  inhibition: 90%
[4]
  Activity: 80%

## CCCCS(=O)(=O)NC(CC#Cc1ccc2[nH]c(=O)n(CCC3CCNCC3)c(=O)c2c1)C(=O)O (stereo unspecified)
[5]
  IC50: 0.21 µM

## CCCc1nnc2n(-c3cccc(C)c3)c(=O)c3ccccc3n12
[6]
  Activity: 4%

## CCCCS(=O)(=O)NC(CCCc1ccc2c(c1)c(=O)n(CCC1CCNCC1)c(=O)n2C)C(=O)O (stereo unspecified)
[5]
  IC50: 0.21 µM

## CN(C)CCC(c1ccc(Cl)cc1)c1ccccn1 (stereo unspecified) [CHLORPHENIRAMINE]
[6]
  Activity: 25%

## CC(=O)OC1C([N+](=O)[O-])c2ccc(Cl)cc2C(=O)N1[N+](=O)[O-] (stereo unspecified)
[7]
  pD2: 5.4

## Oc1nc(-c2ccc(F)cc2)nc2cc3c(cc12)OCO3
[8]
  ED50: 17.7 µmol/kg

## COc1ccc(N/N=C(C)/N=N/n2cnc3ccccc3c2=O)cc1
[9]
  Activity: 15%

## Cc1nc2c(c(=O)n1CCN1CCC(C(=O)c3ccc(F)cc3)CC1)CCCC2
[10]
  Ki: 0.00263 µM

## CC(/N=N/n1cnc2ccccc2c1=O)=N\Nc1ccc(Cl)cc1
[9]
  Activity: 15%

## CNC(=C[N+](=O)[O-])NCCSCc1ccc(CN(C)C)o1
[11]
  ED50: 12.3 mg/kg
  pKb: 7.06

## O=c1c2ccccc2nc(-c2ccncc2)n1CCCN1CCOCC1
[12]
  Time: 7.1 min

## CC(/N=N/n1cnc2ccccc2c1=O)=N\Nc1ccc(C)cc1
[9]
  Activity: 15%

## CCCCS(=O)(=O)NC(CCCc1ccc2c(c1)c(=O)n(CCC1CCNCC1)c(=O)n2Cc1ccccc1)C(=O)O (stereo unspecified)
[5]
  IC50: 0.21 µM

## O=c1[nH]cc(F)c(=O)[nH]1 [FLUOROURACIL]
[13]
  GI50: 1.05 µM
[14]
  GI50: 17 µM
[15]
  GI50: 0.407 µM
[16]
  GI50: 1.62 µM
[17]
  GI50: 55 µM
[18]
  GI50: 6.76 µM
[19]
  GI50: 42.7 µM

## O=c1c2ccccc2nc(-c2cccnc2)n1-c1ccccc1F
[12]
  Time: 395.5 min

## Nc1nc(O)c2c(Cl)c(CNc3ccc(C(=O)NC(CCC(=O)O)C(=O)O)cc3)ccc2n1 (stereo unspecified)
[20]
  IC50: 1.8 µM
[21]
  IC50: 1.8 µM

## COc1ccc(/C=C/c2nc3ccccc3c(=O)n2-c2cc(C(=O)O)ccc2Cl)cc1
[22]
  inhibition in vivo at 200 mg/kg: 62.2%

## COc1cc2nc(-c3ccccc3F)nc(O)c2cc1OC
[23]
  selectivity ratio: 9.17
[24]
  EC50: 10.9 µM
  IC50: 100 µM

## Cc1ccc2nc(SCCCN3C(=O)c4ccccc4C3=O)n(Cc3ccccc3)c(=O)c2c1
[25]
  IC50: 1.85 µM
[26]
  IC50: 1.85 µM

## O=C(c1ccc(F)cc1)C1CCN(CCn2cnc3c(c2=O)CCCC3)CC1
[10]
  Ki: 0.00759 µM

## Cc1cccc(-n2c(=O)c3ccccc3n3c(C)nnc23)c1
[6]
  Activity: 4%

## CCOC(=O)c1c(C)cc2nc(COC(=O)NC(C)C)n(-c3ccccc3Cl)c(=O)c2c1C
[1]
  ED30: 0.42 mg/kg

## CCOC(=O)c1c(C)cc2nc(COC(=O)NC)n(-c3ccccc3Cl)c(=O)c2c1C
[1]
  ED30: 2.8 mg/kg

## Cc1nc2ccccc2c(=O)n1NCN(C)C
[27]
  Activity: 25%
[28]
  Activity: 21%

## Oc1nc(-c2ccc(Cl)cc2)nc2cc3c(cc12)OCO3
[29]
  ED50: 32.7 µmol/kg

## Nc1nc2[nH]cnc2c(=S)[nH]1 [THIOGUANINE]
[13]
  GI50: 3.55 µM
[14]
  GI50: 9.12 µM
[15]
  GI50: 0.195 µM
[16]
  GI50: 1.62 µM
[17]
  GI50: 0.759 µM
[18]
  GI50: 1.48 µM
[19]
  GI50: 4.9 µM

## Nc1ccc(-c2nc(O)c3cc4c(cc3n2)OCO4)cc1
[29]
  ED50: 36.5 µmol/kg
[8]
  ED50: 21.6 µmol/kg

## Oc1nc(-c2ccc(Br)cc2)nc2cc3c(cc12)OCO3
[29]
  ED50: 32.7 µmol/kg
[8]
  ED50: 27.8 µmol/kg

## CCNC(=O)OCc1nc2cc(C)c(C(=O)OCC)c(C)c2c(=O)n1-c1ccccc1Cl
[1]
  ED30: 0.35 mg/kg

## NC1=Nc2ccccc2C2(CC2)N1
[30]
  EC50: 100 µM

## CC(/N=N/n1cnc2ccccc2c1=O)=N\Nc1ccc(O)cc1
[9]
  Activity: 15%

## NC1=NCc2ccccc2C(=O)N1
[30]
  EC50: 650 µM

Reference: ChEMBL document CHEMBL5260833, “An overview of quinazolines: Pharmacological significance and recent developments” (Eur J Med Chem, 2018)
